Legend:
Test in all cases: cryo-EM structure of the complex
[1] = target: rRNA methyltransferase 2, MRM2 (Mus musculus, UniProt Q9CPY0); type: binding; conditions: mtLSU state D; endogenous ligand, not added; SAM-depleted mitochondria; native sample, no GMPPNP
[2] = target: T1, GTP-binding protein 7 GTPBP7 (Mus musculus, UniProt Q8R2R6); conditions: 0.5 mM GMPPNP in lysis and resuspension buffers, 10 mM Mg(OAc)2, BS3 cross-linked; pre-hydrolysis (closed) conformation; mtLSU states B1 and B2
T1 construct: gene Mtg1; BS3 cross-linked
T1 sequence (Q8R2R6 1-326): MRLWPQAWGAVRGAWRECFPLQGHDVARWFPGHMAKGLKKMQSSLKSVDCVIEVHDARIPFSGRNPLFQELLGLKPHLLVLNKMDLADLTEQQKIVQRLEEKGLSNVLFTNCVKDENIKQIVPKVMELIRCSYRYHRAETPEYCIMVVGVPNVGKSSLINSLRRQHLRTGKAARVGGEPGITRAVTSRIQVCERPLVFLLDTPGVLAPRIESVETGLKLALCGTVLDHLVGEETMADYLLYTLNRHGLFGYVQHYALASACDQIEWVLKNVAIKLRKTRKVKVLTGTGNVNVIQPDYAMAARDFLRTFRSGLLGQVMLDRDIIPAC

[3] = target: T2, GTP-binding protein 10, GTPBP10 (Mus musculus, UniProt Q8K013); conditions: 0.5 mM GMPPNP in lysis and resuspension buffers, 10 mM Mg(OAc)2, BS3 cross-linked; relatively poor local resolution, ligand placed in binding pocket; mtLSU states B1 and B2
T2 construct: BS3 cross-linked
T2 sequence (Q8K013 1-366): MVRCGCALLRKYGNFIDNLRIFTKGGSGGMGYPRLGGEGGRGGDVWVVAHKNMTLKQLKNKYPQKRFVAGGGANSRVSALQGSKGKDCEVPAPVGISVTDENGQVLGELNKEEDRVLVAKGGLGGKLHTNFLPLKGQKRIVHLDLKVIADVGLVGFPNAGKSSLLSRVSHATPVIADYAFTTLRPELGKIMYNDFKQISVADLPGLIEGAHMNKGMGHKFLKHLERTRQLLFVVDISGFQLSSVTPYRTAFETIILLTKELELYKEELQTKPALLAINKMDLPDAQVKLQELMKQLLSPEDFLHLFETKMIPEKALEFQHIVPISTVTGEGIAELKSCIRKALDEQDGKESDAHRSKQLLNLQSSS

Sequence of rRNA methyltransferase 2, MRM2 (Q9CPY0 25-246): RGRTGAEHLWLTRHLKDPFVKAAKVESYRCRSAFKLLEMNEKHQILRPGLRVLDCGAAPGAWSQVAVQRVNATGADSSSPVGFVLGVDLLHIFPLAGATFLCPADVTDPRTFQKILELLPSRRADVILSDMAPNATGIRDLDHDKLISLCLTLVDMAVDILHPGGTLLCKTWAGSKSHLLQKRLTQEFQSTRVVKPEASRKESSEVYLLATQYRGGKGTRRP

Structure (SMILES)	cryo-EM structure of the complex [1]	cryo-EM structure of the complex [2]	cryo-EM structure of the complex [3]
Nc1ncnc2c1ncn2[C@@H]1O[C@H](CSCC[C@H](N)C(=O)O)[C@@H](O)[C@H]1O [SAH]	A molecule of SAH was placed in the binding pocket of MRM2	–	–
Nc1nc2c(ncn2[C@@H]2O[C@H](COP(=O)(O)OP(=O)(O)NP(=O)(O)O)[C@@H](O)[C@H]2O)c(=O)[nH]1 [GMPPNP]	–	GTPBP7 adopts its GMPPNP-bound pre-hydrolysis conformation as observed previously	A molecule of GMPPNP was placed in the binding pockets of GTPBP7 and GTPBP10.

Reference: article PMC12198368, “The mitochondrial methylation potential gates mitoribosome assembly” (Nature Communications, 2025)
